Experimental data as given in ChEMBL document CHEMBL3822420, “New peptide deformylase inhibitors design, synthesis and pharmacokinetic assessment” (Bioorg Med Chem Lett, 2016).
In brackets after ≈: the same amount, converted by molar mass.

Key:
Staphylococcus aureus [1] = experiment: Antibacterial activity against methicillin-sensitive Staphylococcus aureus 14-2; format: functional
[2] = AUC (0 to t) in Sprague-Dawley rat at 10 mg/kg, po; format: ADME, organism-based; conditions: in vivo
[3] = Clearance in Sprague-Dawley rat at 10 mg/kg, po; format: ADME, organism-based; conditions: Sprague-Dawley, in vivo
[4] = system: Staphylococcus epidermidis; experiment: Antibacterial activity against methicillin-resistant Staphylococcus epidermidis 14-4; format: functional
Enterococcus faecalis [5] = experiment: Antibacterial activity against Enterococcus faecalis 14-1; format: functional
[6] = Clearance in Sprague-Dawley rat at 2 mg/kg, iv; format: ADME, organism-based; conditions: in vivo
Staphylococcus aureus [7] = experiment: Antibacterial activity against methicillin-sensitive Staphylococcus aureus 14-3; format: functional
[8] = Oral bioavailability in Sprague-Dawley rat at 10 mg/kg; format: ADME, organism-based; conditions: in vivo
[9] = MRT (0 to t) in Sprague-Dawley rat at 2 mg/kg, iv; format: ADME, organism-based; conditions: in vivo
[10] = system: Staphylococcus epidermidis; experiment: Antibacterial activity against methicillin-sensitive Staphylococcus epidermidis 14-2; format: functional
[11] = system: Staphylococcus epidermidis; experiment: Antibacterial activity against methicillin-resistant Staphylococcus epidermidis 14-1; format: functional
Staphylococcus aureus [12] = experiment: Antibacterial activity against methicillin-resistant Staphylococcus aureus 14-1; format: functional
[13] = system: Staphylococcus epidermidis; experiment: Antibacterial activity against methicillin-resistant Staphylococcus epidermidis 14-3; format: functional
[14] = AUC (0 to infinity) in Sprague-Dawley rat at 2 mg/kg, iv; format: ADME, organism-based; parameters: dose 2 mg/kg, route intravenous, time infinity; conditions: Sprague-Dawley, in vivo
[15] = Volume of distribution at steady state in Sprague-Dawley rat at 2 mg/kg, iv; format: ADME, organism-based; conditions: in vivo, read-out: Vdss
Escherichia coli [16] = experiment: Antibacterial activity against Escherichia coli 14-2 expressing extended-spectrum beta-lactamase; format: functional
Rattus norvegicus = experiment: Volume of distribution at steady state in Sprague-Dawley rat at 10 mg/kg, po; format: ADME, organism-based; conditions: in vivo
[17] = Tmax in Sprague-Dawley rat at 10 mg/kg, po; format: ADME, organism-based; conditions: in vivo
[18] = AUC (0 to infinity) in Sprague-Dawley rat at 10 mg/kg, po; format: ADME, organism-based; parameters: dose 10 mg/kg, time infinity, route oral; conditions: Sprague-Dawley, in vivo
Staphylococcus aureus [19] = experiment: Antibacterial activity against methicillin-resistant Staphylococcus aureus 14-2; format: functional
[20] = Tmax in Sprague-Dawley rat at 2 mg/kg, iv; format: ADME, organism-based; conditions: in vivo
[21] = AUC (0 to t) in Sprague-Dawley rat at 2 mg/kg, iv; format: ADME, organism-based; conditions: Sprague-Dawley, in vivo
[22] = Half life in Sprague-Dawley rat at 10 mg/kg, po; format: ADME, organism-based; conditions: Sprague-Dawley, in vivo
[23] = system: Staphylococcus epidermidis; experiment: Antibacterial activity against methicillin-sensitive Staphylococcus epidermidis 14-1; format: functional
[24] = MRT (0 to t) in Sprague-Dawley rat at 10 mg/kg, po; format: ADME, organism-based; conditions: in vivo
[25] = system: Staphylococcus epidermidis; experiment: Antibacterial activity against methicillin-resistant Staphylococcus epidermidis 14-2; format: functional
Staphylococcus aureus [26] = experiment: Antibacterial activity against methicillin-sensitive Staphylococcus aureus 14-1; format: functional
Staphylococcus aureus [27] = experiment: Antibacterial activity against methicillin-sensitive Staphylococcus aureus 14-4; format: functional
[28] = Cmax in Sprague-Dawley rat at 2 mg/kg, iv; format: ADME, organism-based; parameters: dose 2 mg/kg, route intravenous; conditions: in vivo
Escherichia coli [29] = experiment: Antibacterial activity against Escherichia coli 14-2; format: functional
Enterococcus faecalis [30] = experiment: Antibacterial activity against Enterococcus faecalis 14-2; format: functional
[31] = Half life in Sprague-Dawley rat at 2 mg/kg, iv; format: ADME, organism-based; conditions: in vivo
Staphylococcus aureus [32] = experiment: Antibacterial activity against methicillin-resistant Staphylococcus aureus 14-5; format: functional
Escherichia coli [33] = experiment: Antibacterial activity against Escherichia coli 14-1 expressing extended-spectrum beta-lactamase; format: functional
Escherichia coli [34] = experiment: Antibacterial activity against Escherichia coli 14-1; format: functional
[35] = Cmax in Sprague-Dawley rat at 10 mg/kg, po; format: ADME, organism-based; parameters: dose 10 mg/kg, route oral; conditions: in vivo
Enterococcus faecalis [36] = experiment: Antibacterial activity against Enterococcus faecalis 14-5; format: functional
Enterococcus faecalis [37] = experiment: Antibacterial activity against Enterococcus faecalis 14-3; format: functional
[38] = system: Staphylococcus epidermidis; experiment: Antibacterial activity against methicillin-sensitive Staphylococcus epidermidis 14-3; format: functional
Staphylococcus aureus [39] = experiment: Antibacterial activity against methicillin-resistant Staphylococcus aureus 14-4; format: functional

SMILES	MIC (Staphylococcus aureus [1]) [µg/mL]	MIC [4] [µg/mL]	MIC (Enterococcus faecalis [5]) [µg/mL]	MIC (Staphylococcus aureus [7]) [µg/mL]	MIC [10] [µg/mL]	MIC [11] [µg/mL]	MIC (Staphylococcus aureus [12]) [µg/mL]	MIC [13] [µg/mL]	MIC (Escherichia coli [16]) [µg/mL]	MIC (Staphylococcus aureus [19]) [µg/mL]	MIC [23] [µg/mL]	MIC [25] [µg/mL]	MIC (Staphylococcus aureus [26]) [µg/mL]	MIC (Staphylococcus aureus [27]) [µg/mL]	MIC (Escherichia coli [29]) [µg/mL]	MIC (Enterococcus faecalis [30]) [µg/mL]	MIC (Staphylococcus aureus [32]) [µg/mL]	MIC (Escherichia coli [33]) [µg/mL]	MIC (Escherichia coli [34]) [µg/mL]	MIC (Enterococcus faecalis [36]) [µg/mL]	other results
CCCC[C@H](CN(O)C=O)C(=O)N1CC2(CC2)C[C@H]1c1nc2ccccc2[nH]1	2 (≈ 5.2 µM)	1 (≈ 2.6 µM)	8 (≈ 20.8 µM)	2 (≈ 5.2 µM)	2 (≈ 5.2 µM)	1 (≈ 2.6 µM)	1 (≈ 2.6 µM)	0.5 (≈ 1.3 µM)	32 (≈ 83.2 µM)	2 (≈ 5.2 µM)	0.5 (≈ 1.3 µM)	1 (≈ 2.6 µM)	2 (≈ 5.2 µM)	2 (≈ 5.2 µM)	32 (≈ 83.2 µM)	8 (≈ 20.8 µM)	0.5 (≈ 1.3 µM)	0.5 (≈ 1.3 µM)	32 (≈ 83.2 µM)	64 (≈ 166 µM)	AUC(0-t) [2]: 2340 ng·h/mL; CL/F [3]: 70.9 mL/min/kg; clearance [6]: 26.4 mL/min/kg; bioavailability [8]: 37%; MRT last [9]: 1.91 h; AUC(0-inf) [14]: 1270 ng·h/mL; Vd [15]: 3 L/kg; Vdss (Rattus norvegicus): 27.4 L/kg; Tmax [17]: 0.25 h; AUC(0-inf) [18]: 2380 ng·h/mL; Tmax [20]: 4.8 min; AUC(0-t) [21]: 1260 ng·h/mL; half-life [22]: 4.46 h; MRT last [24]: 4.13 h; Cmax [28]: 1740 ng/mL; half-life [31]: 5.23 h; Cmax [35]: 1680 ng/mL; MIC (Enterococcus faecalis [37]): 8 µg/mL (≈ 20.8 µM); MIC [38]: 0.5 µg/mL (≈ 1.3 µM); MIC (Staphylococcus aureus [39]): 2 µg/mL (≈ 5.2 µM)
CCCC[C@H](CN(O)C=O)C(=O)N1CC2(CC2)C[C@H]1c1nc(-c2cccnc2)no1	0.5 (≈ 1.21 µM)	0.5 (≈ 1.21 µM)	2 (≈ 4.84 µM)	0.5 (≈ 1.21 µM)	0.5 (≈ 1.21 µM)	0.25 (≈ 0.605 µM)	0.5 (≈ 1.21 µM)	0.125 (≈ 0.302 µM)	32 (≈ 77.4 µM)	0.5 (≈ 1.21 µM)	0.125 (≈ 0.302 µM)	0.25 (≈ 0.605 µM)	0.5 (≈ 1.21 µM)	0.5 (≈ 1.21 µM)	64 (≈ 155 µM)	2 (≈ 4.84 µM)	0.5 (≈ 1.21 µM)	1 (≈ 2.42 µM)	64 (≈ 155 µM)	2 (≈ 4.84 µM)	AUC(0-t) [2]: 1280 ng·h/mL; CL/F [3]: 136 mL/min/kg; clearance [6]: 51.2 mL/min/kg; bioavailability [8]: 40%; MRT last [9]: 0.61 h; AUC(0-inf) [14]: 657 ng·h/mL; Vd [15]: 1.9 L/kg; Vdss (Rattus norvegicus): 15.1 L/kg; Tmax [17]: 0.25 h; AUC(0-inf) [18]: 1300 ng·h/mL; Tmax [20]: 4.8 min; AUC(0-t) [21]: 654 ng·h/mL; half-life [22]: 1.28 h; MRT last [24]: 1.68 h; Cmax [28]: 929 ng/mL; half-life [31]: 1.11 h; Cmax [35]: 893 ng/mL; MIC (Enterococcus faecalis [37]): 2 µg/mL (≈ 4.84 µM); MIC [38]: 0.125 µg/mL (≈ 0.302 µM); MIC (Staphylococcus aureus [39]): 0.5 µg/mL (≈ 1.21 µM)
CCCC[C@H](CN(O)C=O)C(=O)N1CC2(CC2)C[C@H]1C(=O)Nc1ncccc1F	0.5 (≈ 1.23 µM)	0.5 (≈ 1.23 µM)	2 (≈ 4.92 µM)	0.5 (≈ 1.23 µM)	0.25 (≈ 0.615 µM)	0.25 (≈ 0.615 µM)	0.5 (≈ 1.23 µM)	0.125 (≈ 0.308 µM)	64 (≈ 157 µM)	0.5 (≈ 1.23 µM)	0.125 (≈ 0.308 µM)	0.25 (≈ 0.615 µM)	0.5 (≈ 1.23 µM)	0.5 (≈ 1.23 µM)	64 (≈ 157 µM)	2 (≈ 4.92 µM)	0.25 (≈ 0.615 µM)	2 (≈ 4.92 µM)	> 64	2 (≈ 4.92 µM)	MIC (Enterococcus faecalis [37]): 2 µg/mL (≈ 4.92 µM); MIC [38]: 0.25 µg/mL (≈ 0.615 µM); MIC (Staphylococcus aureus [39]): 0.5 µg/mL (≈ 1.23 µM)
CCCC[C@H](CN(O)C=O)C(=O)N1CC2(CC2)C[C@H]1C(=O)Nc1cc[nH]n1	16 (≈ 42.4 µM)	8 (≈ 21.2 µM)	64 (≈ 170 µM)	16 (≈ 42.4 µM)	16 (≈ 42.4 µM)	8 (≈ 21.2 µM)	16 (≈ 42.4 µM)	4 (≈ 10.6 µM)	128 (≈ 339 µM)	32 (≈ 84.8 µM)	4 (≈ 10.6 µM)	8 (≈ 21.2 µM)	16 (≈ 42.4 µM)	16 (≈ 42.4 µM)	> 128	64 (≈ 170 µM)	8 (≈ 21.2 µM)	16 (≈ 42.4 µM)	> 128	> 128	MIC (Enterococcus faecalis [37]): 64 µg/mL (≈ 170 µM); MIC [38]: 4 µg/mL (≈ 10.6 µM); MIC (Staphylococcus aureus [39]): 16 µg/mL (≈ 42.4 µM)
CCCC[C@H](CN(O)C=O)C(=O)N1CCC[C@H]1C(=O)Nc1ccc(F)c[n+]1[O-]	0.5 (≈ 1.26 µM)	0.125 (≈ 0.315 µM)	2 (≈ 5.05 µM)	0.5 (≈ 1.26 µM)	0.5 (≈ 1.26 µM)	0.125 (≈ 0.315 µM)	1 (≈ 2.52 µM)	0.06 (≈ 0.151 µM)	64 (≈ 161 µM)	1 (≈ 2.52 µM)	0.06 (≈ 0.151 µM)	0.125 (≈ 0.315 µM)	0.5 (≈ 1.26 µM)	0.5 (≈ 1.26 µM)	64 (≈ 161 µM)	2 (≈ 5.05 µM)	0.5 (≈ 1.26 µM)	1 (≈ 2.52 µM)	64 (≈ 161 µM)	128 (≈ 323 µM)	MIC (Enterococcus faecalis [37]): 2 µg/mL (≈ 5.05 µM); MIC [38]: 0.06 µg/mL (≈ 0.151 µM); MIC (Staphylococcus aureus [39]): 1 µg/mL (≈ 2.52 µM)
CCCC[C@H](CN(O)C=O)C(=O)N1CC2(CC2)C[C@H]1C(=O)Nc1cccc(Nc2ncccn2)c1	0.25 (≈ 0.52 µM)	0.25 (≈ 0.52 µM)	0.5 (≈ 1.04 µM)	0.25 (≈ 0.52 µM)	0.25 (≈ 0.52 µM)	0.125 (≈ 0.26 µM)	0.25 (≈ 0.52 µM)	0.06 (≈ 0.125 µM)	64 (≈ 133 µM)	0.25 (≈ 0.52 µM)	0.125 (≈ 0.26 µM)	0.25 (≈ 0.52 µM)	0.25 (≈ 0.52 µM)	0.125 (≈ 0.26 µM)	128 (≈ 266 µM)	1 (≈ 2.08 µM)	0.125 (≈ 0.26 µM)	1 (≈ 2.08 µM)	128 (≈ 266 µM)	1 (≈ 2.08 µM)	MIC (Enterococcus faecalis [37]): 1 µg/mL (≈ 2.08 µM); MIC [38]: 0.125 µg/mL (≈ 0.26 µM); MIC (Staphylococcus aureus [39]): 0.25 µg/mL (≈ 0.52 µM)
